Columns and labels:
Assay in all cases: QRT-PCR gene expression in HaCaT cells with or without UVA
Type in all cases: cell-based, human
MMP-9 = system: MMP-9
Experimental: (§1) HaCaT cells were obtained from Prof. Fusenig, German Cancer Research Centre, Heidelberg. […] The accuracy of cell counting was approximately 99%.
(§2) On day 3 of the experiment, cells were washed six times with Ca/Mg-free PBS containing 2% BSA, and then irradiated with light with a Hönle sun lamp Sol 500 (Dr. Hönle, Plannegg, Germany) at a dose of 270 kJ/m^2 in Ca/Mg-free PBS (2 hour exposure time at […]). The experimental schedule was chosen because the cells had optimal UVA sensitivity after 48 hours in culture. […] Confluent cultures were much less sensitive to irradiation.
(§3) After irradiation, the cells were supplied with fresh β-carotene-containing serum-free medium and kept in the incubator at 37° C., 5% CO2 until harvest of the samples. In experiments in which the half-life of ^1O2 was prolonged by D2O to enhance its effect, PBS was prepared in D2O, instead of in H2O, as it was done for the standard conditions described above. Cells were washed twice in D2O-PBS prior to irradiation in D2O-PBS. After irradiation, cells were maintained with fresh β-carotene-containing serum-free medium. Sham controls were treated in an identical manner, by placing them under the solar simulator but shielded from light.
(§4) Total RNA was isolated by using Trizol™ (Invitrogen, Basel, Switzerland) according to the instructions of the manufacturer. Random-primed cDNA was synthesized using the Superscript pre-amplification system for first strand cDNA synthesis (Invitrogen).
(§5) cDNA corresponding to 10 ng total RNA was used as template to quantify the relative RNA expression of the genes of interest by TaqMan® real time PCR.
(§6) The PCR analyses were carried out in triplicate and in a multiplex setup, using 18S rRNA as a calibrator gene. The rRNA primers were used at a final concentration of 50 nM, the probe at 100 nM. For quantification of the genes of interest, the primer concentrations were optimized for sensitivity of template detection. […] PCR reactions were carried out for 40 cycles of 95° C. for 15 seconds and 60° C. for 1 minute in an ABI7700 (Applied Biosystems, Rotkreuz, Switzerland). Regulation of gene expression was calculated as described in user bulletin #2 provided by the manufacturer. A threshold cycle (“CT”) is the first PCR cycle in which an amplification signal is detected. Expression levels are given as δCT values. The δCT value describes the level of gene expression as the average PCR cycle, in which the gene of interest was detected first (CT value), subtracted by the CT value of the calibrator gene 18S rRNA (CTgene of interest−CTcalibrating gene), 18S rRNA served as a measure for the amount of template in the reaction. Routinely, 18S rRNA was detected between PCR cycle 12 and 13 (SE=standard error) A low δCT corresponds to a high mRNA level.

MMP-1 = system: MMP-1
Experimental: as §1, §2, §3, §4, §5, §6

MMP-3 = system: MMP-3
Experimental: as §1, §2, §3, §4, §5, §6

MMP-2 = system: MMP-2
Experimental: as §1, §2, §3, §4, §5, §6

MMP-10 = system: MMP-10
Experimental: as §1, §2, §3, §4, §5, §6

RARβ = system: RARβ
Experimental: as §1, §2, §3, §4, §5, §6
(§7) HaCaT cells were pretreated for 2 days with 0.5, 1.5 or 3 μM β-carotene. The cells were irradiated with UVA (270 kJ/m^2) either in D2O-containing PBS or in H2O-containing PBS, to analyze ^1O2 inducibility of genes. Gene expression 5 hours after UVA irradiation was analyzed by QRT-PCR. Values are geometric means±standard error from three independent experiments. Upregulations greater than 1.5-fold are labelled in bold black, downregulations below 0.66-fold are bold grey.

RXRγ = system: RXRγ
Experimental: as §1, §2, §3, §4, §5, §6, §7

[1] = system: β-Carotene-15,15′-oxygenase
Experimental: as §1, §2, §3, §4, §5, §6, §7

RARα = system: RARα
Experimental: as §1, §2, §3, §4, §5, §6, §7

TIMP-1 = system: TIMP-1
Experimental: as §1
Vitamin E (RRR-α-tocopherol; DSM Nutritional Products, Kaiseraugst, Switzerland) stock solutions and vitamin E-containing media were prepared as described for β-carotene-containing solutions, except that vitamin E was dissolved in ethanol. In experiments addressing the vitamin E effect, vitamin E was used in a final concentration of 50 μM. Again, the solvent concentration was kept constant at 0.03% ethanol for all conditions.
as §2, with “irradiation. […]” for “irradiation.”
as §5
The PCR analyses were carried out in triplicate and in a multiplex setup, using 18S rRNA as a calibrator gene. […] For quantification of the genes of interest, the primer concentrations were optimized for sensitivity of template detection. […] Regulation of gene expression was calculated as described in user bulletin #2 provided by the manufacturer. A threshold cycle (“CT”) is the first PCR cycle in which an amplification signal is detected. […] The δCT value describes the level of gene expression as the average PCR cycle, in which the gene of interest was detected first (CT value), subtracted by the CT value of the calibrator gene 18S rRNA (CTgene of interest−CTcalibrating gene), 18S rRNA served as a measure for the amount of template in the reaction. Routinely, 18S rRNA was detected between PCR cycle 12 and 13 (SE=standard error) A low δCT corresponds to a high mRNA level.

[2] = β-carotene 1.5 μM, with or without UVA

CC1=C(/C=C/C(C)=C/C=C/C(C)=C/C=C/C=C(C)/C=C/C=C(C)/C=C/C2=C(C)CCCC2(C)C)C(C)(C)CCC1 [β-carotene, All-E-β-carotene]
MMP-9 expression (MMP-9; UVA/D2O experiments): no significant effect | MMP-9 expression, tendency (MMP-9; irradiated and unirradiated cells): tended to lower expression | MMP-9 expression (MMP-9; [2]): did not influence their expression significantly | basal MMP-1 RNA expression (MMP-1; unirradiated cells): tended to reduce | UVA-induced MMP-1 induction (MMP-1; β-carotene 1.5 μM, 5 hours after UVA, UVA alone 1.3 fold): 0.9 fold | UVA/D2O-induced MMP-1 induction (MMP-1; β-carotene 0.5, 1.5, 3 μM): significantly and dose-dependently reduced | MMP-3 induction by UVA (MMP-3; presence or absence of D2O): prevented MMP-3 induction | UVA-induction of MMP-3 (MMP-3; β-carotene 1.5 μM, UVA alone approx. 49 fold): 27 fold | MMP-2 expression (MMP-2; UVA/D2O experiments): no significant effect | MMP-2 expression (MMP-2; [2]): did not influence their expression significantly | basal MMP-10 expression (MMP-10; unirradiated cells): tended to reduce | UVA induction of MMP-10 (MMP-10; β-carotene 1.5 μM, UVA alone about 3 fold): approx. 2.5 fold | MMP-10 induction by UVA and D2O (MMP-10; β-carotene 0.5, 1.5, 3 μM): opposed MMP-10 induction by UVA and D2O in a dose-dependent fashion | basal or UVA-regulated expression level of RARβ (RARβ): no significant effect | RARβ fold induction (RARβ; D2O, UVA/βC 0.5 μM): 2.49 fold | RARβ fold induction (RARβ; D2O, UVA/βC 1.5 μM): 1.69 fold | RARβ fold induction (RARβ; D2O, UVA/βC 3 μM): 2.35 fold | RARβ fold induction (RARβ; D2O, βC 0.5 μM): 1.25 fold | RARβ fold induction (RARβ; D2O, βC 1.5 μM): 2.46 fold | RARβ fold induction (RARβ; D2O, βC 3 μM): 2.79 fold | RARβ fold induction (RARβ; H2O, UVA/βC 0.5 μM): 0.44 fold | RARβ fold induction (RARβ; H2O, UVA/βC 1.5 μM): 0.90 fold | RARβ fold induction (RARβ; H2O, UVA/βC 3 μM): 0.86 fold | RARβ fold induction (RARβ; H2O, βC 0.5 μM): 0.81 fold | RARβ fold induction (RARβ; H2O, βC 1.5 μM): 1.20 fold | RARβ fold induction (RARβ; H2O, βC 3 μM): 1.84 fold | RARβ induction, dose-dependent (RARβ; predominantly in unirradiated cells): non-significantly induced | basal or UVA-regulated expression level of RXRγ (RXRγ): no significant effect | RXRγ fold induction (RXRγ; D2O, UVA/βC 0.5 μM): 1.72 fold | RXRγ fold induction (RXRγ; D2O, UVA/βC 1.5 μM): 2.70 fold | RXRγ fold induction (RXRγ; D2O, UVA/βC 3 μM): 1.57 fold | RXRγ fold induction (RXRγ; D2O, βC 0.5 μM): 1.47 fold | RXRγ fold induction (RXRγ; D2O, βC 1.5 μM): 2.78 fold | RXRγ fold induction (RXRγ; D2O, βC 3 μM): 2.57 fold | RXRγ fold induction (RXRγ; H2O, UVA/βC 0.5 μM): 0.61 fold | RXRγ fold induction (RXRγ; H2O, UVA/βC 1.5 μM): 0.08 fold | RXRγ fold induction (RXRγ; H2O, UVA/βC 3 μM): 0.67 fold | RXRγ fold induction (RXRγ; H2O, βC 0.5 μM): 0.39 fold | RXRγ fold induction (RXRγ; H2O, βC 1.5 μM): 0.77 fold | RXRγ fold induction (RXRγ; H2O, βC 3 μM): 0.33 fold | βC-15,15′-oxygenase fold induction ([1]; D2O, UVA/βC 0.5 μM): 1.08 fold | βC-15,15′-oxygenase fold induction ([1]; D2O, UVA/βC 1.5 μM): 0.90 fold | βC-15,15′-oxygenase fold induction ([1]; D2O, UVA/βC 3 μM): 0.91 fold | βC-15,15′-oxygenase fold induction ([1]; D2O, βC 0.5 μM): 1.19 fold | βC-15,15′-oxygenase fold induction ([1]; D2O, βC 1.5 μM): 1.03 fold | βC-15,15′-oxygenase fold induction ([1]; D2O, βC 3 μM): 0.43 fold | βC-15,15′-oxygenase fold induction ([1]; H2O, UVA/βC 0.5 μM): 0.60 fold | βC-15,15′-oxygenase fold induction ([1]; H2O, UVA/βC 1.5 μM): 0.84 fold | βC-15,15′-oxygenase fold induction ([1]; H2O, UVA/βC 3 μM): 0.91 fold | βC-15,15′-oxygenase fold induction ([1]; H2O, βC 0.5 μM): 1.09 fold | βC-15,15′-oxygenase fold induction ([1]; H2O, βC 1.5 μM): 1.19 fold | βC-15,15′-oxygenase fold induction ([1]; H2O, βC 3 μM): 1.08 fold | β-Carotene-15,15′-oxygenase RNA level ([1]; β-carotene, UVA, D2O treatments): not significantly influenced | basal or UVA-regulated expression level of RARα (RARα): no significant effect | RARα fold induction (RARα; D2O, UVA/βC 0.5 μM): 1.06 fold | RARα fold induction (RARα; D2O, UVA/βC 1.5 μM): 1.21 fold | RARα fold induction (RARα; D2O, UVA/βC 3 μM): 0.52 fold | RARα fold induction (RARα; D2O, βC 0.5 μM): 1.01 fold | RARα fold induction (RARα; D2O, βC 1.5 μM): 1.02 fold | RARα fold induction (RARα; D2O, βC 3 μM): 1.18 fold | RARα fold induction (RARα; H2O, UVA/βC 0.5 μM): 1.45 fold | RARα fold induction (RARα; H2O, UVA/βC 1.5 μM): 0.47 fold | RARα fold induction (RARα; H2O, UVA/βC 3 μM): 0.71 fold | RARα fold induction (RARα; H2O, βC 0.5 μM): 0.56 fold | RARα fold induction (RARα; H2O, βC 1.5 μM): 0.67 fold | RARα fold induction (RARα; H2O, βC 3 μM): 0.55 fold | TIMP-1 expression (TIMP-1; UVA/D2O experiments): not significantly influenced | TIMP-1 RNA level (TIMP-1; β-carotene, with or without UVA): not significantly influenced

From US20160304957A1, “TREATMENT AND MODULATION OF GENE EXPRESSION AND SKIN AGING” (DSM NUTRITIONAL PRODUCTS LTD., priority 2006, published 2016)
